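In this assay, cells in 96-well plates receive the compound at five concentrations for 48 hours. Endpoints are linearly interpolated between the surrounding concentrations. TGI denotes the concentration required for complete inhibition of growth.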
Key:
Experiment in all cases: NCI-60 cell line screen, 48 h
MDA-MB-231 breast = test system: MDA-MB-231 breast
MALME-3M melanoma = test system: MALME-3M melanoma
HCT-15 colon = test system: HCT-15 colon
HCT-116 colon = test system: HCT-116 colon
UACC-257 melanoma = test system: UACC-257 melanoma
NCI-H522 lung = test system: NCI-H522 lung
HCC-2998 colon = test system: HCC-2998 colon
BT-549 breast = test system: BT-549 breast
SR leukemia = test system: SR leukemia

SMILES	TGI (MDA-MB-231 breast) [µM]	TGI (MALME-3M melanoma) [µM]	TGI (HCT-15 colon) [µM]	TGI (HCT-116 colon) [µM]	TGI (UACC-257 melanoma) [µM]	TGI (NCI-H522 lung) [µM]	TGI (HCC-2998 colon) [µM]	TGI (BT-549 breast) [µM]	TGI (SR leukemia) [µM]
C=C1CC/C=C(/C(=O)O)CC[C@H]2[C@@H]1CC2(C)C	> 100	> 100	> 100	> 100	> 100	> 100	> 100	> 100	
CC(C)(C)OC(=O)C1=C(C(=O)OC(C)(C)C)SC2(S1)C(C(=O)OC(C)(C)C)=C(C(=O)OC(C)(C)C)Sc1c2ssc1=O	> 100	> 100	> 100	> 100	> 100	> 100	> 100	> 100	
N#CCCC(CC#N)N1CCN(CCO)CC1 (stereo not given)	> 100	> 100	> 100	> 100	> 100		> 100		> 100
CC(C)CCCC(C)[C@H]1CC[C@H]2[C@@H]3CC[C@H]4C[C@@H](CCC=C(c5cc(Cl)c(O)c(C(=O)OC(C)(C)C)c5)c5cc(Cl)c(O)c(C(=O)OC(C)(C)C)c5)CC[C@]4(C)[C@H]3CC[C@]12C (stereo not given in full)	> 50		> 50	> 50			> 50	> 50	
COC(=O)[C@H]1[C@H](C(=O)OC)[C@@H](C)c2c(ccc3c2[nH]c2ccccc23)[C@@H]1C	> 100	> 100	> 100	> 100	66.3	> 100		> 100	> 100
CC1(C)OCC2OC3([C@H](O)CCO)OC(C)(C)OC3C2O1 (stereo not given in full)	> 100		> 100	> 100	> 100		> 100	> 100	> 100
COC1(OC)N=C(N)C2(C#N)C(C)CC(=O)N(N(C)C)C12C#N (stereo not given)	> 100	> 100	> 100	> 100	> 100	> 100	> 100		> 100
CC1=C(C2=C(C)C(=O)C(=O)c3cc(C)ccc32)c2ccc(C)cc2C(=O)C1=O	0.91	0.435	> 100	1	0.382	0.631	0.298	0.374	
COC(=O)NCCc1[nH]nc2c1C(=O)C=C(OC)C2=O	30.4	28.8	71.6	32.6	28.3	44.3	> 100		36.6
Cn1c(C(C#N)c2cc(Cl)ncn2)nc2ccccc21 (stereo not given)	> 100	> 100	> 100	> 100	> 100	> 100		> 100	
Cc1ccc(/C=C2\NC(=S)N(CN3CCOCC3)C2=O)cc1	> 100	> 100	> 100	> 100	> 100				> 100
C=C(C)CCC1CCCCC(CN(C)C)C1=O (stereo not given)	> 100		> 100	> 100	> 100	27.2			> 100
OCCSCCCSCCO	> 100		> 100	> 100	> 100	> 100	> 100	> 100	> 100
OC(c1cccs1)c1cc2ccccc2s1 (stereo not given)	> 10		> 10	> 10	> 10	> 10	> 10		> 10
N=c1c2c3n(c4c(=O)n(-c5ccccc5)c(=S)n(c(=O)n1-c1ccccc1)c24)CCCCC3	> 100	> 100	> 100	> 100	> 100	> 100	> 100	> 100	
COC1=CC(=O)C(O)=C(C[C@@]2(C)[C@@H]3CCC[C@H](COC(=O)CCCCCNC(=O)OC(C)(C)C)[C@@]3(C)CC[C@@H]2C)C1=O	> 10	> 10		> 10	> 10	> 10			> 10
Oc1ccc2c(c1)OCC(O)(c1ccccc1O)C2 (stereo not given)	> 100		> 100	> 100	> 100		> 100	> 100	
CC(SC(=S)N1CCCCC1)C(=O)Nc1nnc(-c2ccc(Cl)cc2)o1 (stereo not given)	> 100	72.6	> 100	40.3	> 100		> 100	> 100	
CCCCCCOc1ccc(NC2=C(Cl)C(=O)c3cccnc3C2=O)cc1		4.85	3.96	2.09	5.21		3.1	> 10	
CCOC(=O)c1c(C)n(Cc2ccccc2)c2c1cc(O)c1[nH]c3c(c12)CCCC3	19	15.6	13.9	27.8	52.4	2.58		24.6	
N[C@@H]1c2c(Br)sc(Br)c2[C@H](O)[C@@H]1O	> 100	> 100	> 100	> 100	> 100	> 100	> 100	> 100	
NC1CC2C3CCC2C1C3=O (stereo not given)	> 100	> 100	> 100	> 100	> 100	> 100	> 100		> 100
Oc1ccc(-c2nc3cc(C(F)(F)F)ccc3n2CC2CCCN3CCCCC23)cc1 (stereo not given)	27.6		30.1	29.3	30.3	29	21.5		35.8
CCCCCCCCCCCCCCCCCCNc1ccn(C2OC(COP(=O)(O)O)C(O)C2O)c(=O)n1 (stereo not given)	> 100		> 100	> 100	> 100	> 100	> 100	> 100	
O=[N+]([O-])c1ccc(Cl)cc1C1ON=C(c2ccccc2)N1C12CC3CC(CC(C3)C1)C2 (stereo not given)	> 100	> 100	> 100	> 100	> 100	> 100	> 100		> 100
Cc1cc(C)c2c(n1)S(=O)(=O)N(CCCN1CCN(c3cccc(C(F)(F)F)c3)CC1)/C(=C(\O)c1ccccc1)C2=O	71.8	> 100	67	18.3	32.4	88.9		57.3	18.7
O=[N+]([O-])CC(SCc1ccccc1)c1ccc2c(c1)OCO2 (stereo not given)	25.6	30.1	15.9	4.46	16	28.3	10.5		8.51
